Laboratory results from EP1406920B1, “NOVEL CHROMOGENIC SUBSTANCES AND USE THEREOF FOR THE DETERMINATION OF CARBOXYPEPTIDASE ACTIVITIES” (Diagnostica Stago, priority 2001, dated 2003).

Assays:
Format in all cases: biochemical
[1] = biological target: T1, TAFI purifié (Homo sapiens, UniProt Q96IY4); assay: Colorimetric TAFI activity assay on purified TAFI with different substrates (thrombin/thrombomodulin activation, carboxypeptidase A revelation); settings: substrate 5 mM; 6,5 µg/ml TAFI purifié in hépès buffer; read at 320-350 nm
T1 sequence (Q96IY4 115-423): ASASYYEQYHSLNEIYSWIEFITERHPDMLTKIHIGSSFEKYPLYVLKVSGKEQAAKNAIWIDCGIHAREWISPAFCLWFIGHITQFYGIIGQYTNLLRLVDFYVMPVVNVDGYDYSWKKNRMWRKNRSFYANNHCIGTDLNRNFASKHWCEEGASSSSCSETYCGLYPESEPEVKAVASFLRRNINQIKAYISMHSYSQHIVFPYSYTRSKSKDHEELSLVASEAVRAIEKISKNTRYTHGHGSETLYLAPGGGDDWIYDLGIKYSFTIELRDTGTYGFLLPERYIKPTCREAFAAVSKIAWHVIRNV

[2] = biological target: T1, TAFI purifié; assay: Specificity test on purified TAFI solution: MxAFR versus MxPAFFK; settings: for DO de départ / DO finale / Delta DO: TAFI purifié 18 µg/ml, activated, MxAFR 27 mM without CPA, MxPAFFK with CPA added, 382 nm; for hydrolyse par le TAFI activé: conclusion in words, purified TAFI 18 µg/ml
Text: 2. La méthode de l'invention est ensuite appliquée sur une solution de TAFI purifiée, soit avec un substrat de formule (I) (MxPAFFK), soit avec le MxAFR pour vérifier que le TAFIa hydrolyse néanmoins un composé de formule (I). L'activation de la coagulation est déclenchée par le complexe thrombine-thrombomoduline-CaCl2 (voir protocole exemple 2). La diminution de coloration de chacun des deux échantillons est suivie au spectrophotomètre. • a) échantillons de départ : solution de TAFI purifié à18 µg/ml (dilué dans tampon hépès). • b) activation de la coagulation. • c) addition de MxAFR 27 mM ou MxPAFFK (témoin) concentration du MxAFFK. • d) addition de CPA dans l'échantillon contenant le MxPAFFK. • e) lecture DO à 382 nm.

[3] = system: carboxypeptidase B pancréatique porcine; assay: Decoloration of single-amino-acid substrate AAFR by pancreatic carboxypeptidase B; settings: CPB porcine 5,2 mol/l in hépès buffer; AAFR 5 mM (0,25 mM); 382 nm
Text: (§1) L'exemple ci-après vise à démontrer la nécessité d'utiliser la méthode et les composés de formule (I) de l'invention pour doser spécifiquement l'activité des CPN ou U, en particulier le TAFI, par rapport à d'autres carboxypeptidases basiques. 1. Le dosage est dans ce cas réalisé avec un substrat de la famille de composés décrites par Mock dans (14). Ce substrat est constitué d'un seul acide aminé porteur du radical chromophore anizylazoformyl (portion CH3OC6H4-N = N-CO-). L'acide aminé choisi est l'arginine, un acide aminé basique normalement hydrolysé par les carboxypeptidases B (1). Ce substrat est dénommé ci-après AAFR (AnizylAzoFormyArginine) ou MxAFR (4-MethoxyphenylAzoformylarginine). Ce substrat (0,25 mM) est mis en présence soit d'un échantillon de TAFI plasmatique, soit d'une solution de carboxypeptidase B pancréatique porcine (Sigma - Réf. C9584) à 5,2 mol/l. La diminution de coloration de chacun des deux échantillons est suivie au spectrophotomètre. Chacun des échantillons est traité selon le protocole suivant : • a) échantillon de départ : • TAFI plasmatique (présent dans un pool normal de plasmas - dilué au 1/20) ou • Carboxypeptidase B pancréatique porcine 5,2 mol/l (dans tampon hépès) • b) activation avec complexe thrombine-thrombomoduline-CaCl2 (voir exemple 2) pour l'échantillon de TAFI plasmatique. • c) addition de AAFR à 5 mM. • d) lecture DO à 382 nm.

[4] = biological target: T2, TAFI plasmatique (Homo sapiens, UniProt Q96IY4); assay: Decoloration of single-amino-acid substrate AAFR by activated plasma TAFI
T2 construct: from tissue; host or cells: normal plasma pool, diluted 1/20
T2 sequence (Q96IY4 115-423): T1 sequence (Q96IY4 115-423)
Text: as §1

[5] = biological target: T1, TAFI purifié; assay: Calibration range, thrombin/thrombomodulin method, TAFI-deficient plasma spiked with purified TAFI; settings: substrate 5 mM
Experimental: L'échantillon de plasma testé est divisé en deux aliquotes, l'un étant additionné de PIC (Calbiochem - Réf. 217359), l'autre de tampon hépès. Les deux aliquotes sont ensuite traités de manière identique selon le principe suivant :
• 150 µl de plasma dilué au 1/20 en tampon hépès (ou TAFI purifié à 13 µg/ml en tampon hépès. • 10 µl PIC ou H2O • 5 minutes à température ambiante • 150 µl tampon activateur de la coagulation • 10 minutes à température ambiante • 100 µl PPACK + 100 µl MxPAFFR (substrat) (5 mM)
• 30 minutes à température ambiante • 100 µl HCl 1M + 100 µl NaOH 1M
• Dilution au 1/3 en tampon hépès • Lecture de la DO à 382 nm • 25 µl Carboxypeptidase A • Lecture de la DO à 382 nm sur 1 minute
La figure 3 ci-après représente une courbe d'étalonnage établie à partir d'un plasma déficient en TAFI surchargé avec du TAFI purifié pour obtenir une gamme de concentration en TAFI allant de 0 à 26 µg/ml. Le composé de formule I utilisé est le MxPAAFR à une concentration de 5 mM. Les Δ DO mesurés selon la méthode de l'invention sont reportés dans le tableau III suivant : TABLEAU III : […]

[6] = TAFIa du plasma (normal plasma pool diluted 1/20, thrombine-thrombomoduline-CaCl2 activation), AAFR 5 mM (0,25 mM), 382 nm

SMILES | DO de départ [1] | DO finale [1] | Delta DO [1] | DO de départ [2] | DO finale [2] | Delta DO [2] | hydrolyse par le TAFI activé [2] | also measured
Cc1cccc(N=NC(=O)N[C@@H](Cc2ccccc2)C(=O)N[C@@H](CCCNC(=N)N)C(=O)O)c1C [2,3 DMPAFFR, 2,3-dimethylphenylazoformylphenylalanylarginine] | 0.318 | 0.089 | 0.229 | – | – | – | – | –
Cc1ccc(N=NC(=O)N[C@@H](Cc2ccccc2)C(=O)N[C@@H](CCCNC(=N)N)C(=O)O)c(C)c1 [2,4 DMPAFFR, 2,4-dimethylphenylazoformylphenylalanylarginine] | 1.004 | 0.087 | 0.917 | – | – | – | – | –
Cc1ccc(C)c(N=NC(=O)N[C@@H](Cc2ccccc2)C(=O)N[C@@H](CCCNC(=N)N)C(=O)O)c1 [2,5 DMPAFFR, 2,5-dimethylphenylazoformylphenylalanylarginine] | 0.973 | 0.131 | 0.842 | – | – | – | – | –
COc1ccc(N=NC(=O)N[C@@H](CCCNC(=N)N)C(=O)O)cc1 [AAFR, 4-MethoxyphenylAzoformylarginine] | – | – | – | 1.356 | 1.300 | 0.056 | n'hydrolyse pas | Delta DO [3]: 0.608; DO de départ [4, 6]: 1.730; DO finale [4, 6]: 1.681; Delta DO [4, 6]: 0.049; hydrolyse par le TAFI activé ([4]; conclusion in words, plasma TAFIa): n'hydrolyse pas
COc1ccc(N=NC(=O)N[C@@H](Cc2ccccc2)C(=O)N[C@@H](CCCNC(=N)N)C(=O)O)cc1 [MxPAAFR, 4-methoxyphenylazoformylphenylalanylarginine] | – | – | – | – | – | – | – | Δ DO mesuré ([5]; concentration en TAFIa 0 µg/ml): 0.168; Δ DO mesuré ([5]; concentration en TAFIa 1.63 µg/ml): 0.217; Δ DO mesuré ([5]; concentration en TAFIa 3.25 µg/ml): 0.273; Δ DO mesuré ([5]; concentration en TAFIa 6.5 µg/ml): 0.399; Δ DO mesuré ([5]; concentration en TAFIa 13 µg/ml): 0.624; Δ DO mesuré ([5]; concentration en TAFIa 26 µg/ml): 0.995
COc1ccc(N=NC(=O)N[C@@H](Cc2ccccc2)C(=O)N[C@@H](CCCCN)C(=O)O)cc1 [MxPAFFK, 4-methoxyphenylazoformylphenylalanyllysine] | 0.973 | 0.131 | 0.842 | 1.397 | 0.849 | 0.548 | actif | –
